Source: article PMC9795464 (JACS Au, 2022)

Tests used:
FXR = molecular target: T1, FXR (Homo sapiens, UniProt Q96RI1); assay: AlphaScreen corepressor NCoR-2 recruitment assay; type: biochemical; conditions: Figure 1I
T1 sequence (Q96RI1 243-472 isoform Q96RI1-2): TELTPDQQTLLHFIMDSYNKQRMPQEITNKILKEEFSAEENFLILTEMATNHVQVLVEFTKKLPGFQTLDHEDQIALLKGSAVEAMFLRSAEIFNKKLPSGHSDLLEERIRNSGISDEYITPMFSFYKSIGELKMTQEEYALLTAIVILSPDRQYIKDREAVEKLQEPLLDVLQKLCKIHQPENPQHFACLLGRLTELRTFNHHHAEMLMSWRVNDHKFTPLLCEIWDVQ

[1] = tested on: BDL-induced liver injury in mice; assay: Bile duct ligation; type: in vivo
[2] = tested on: inflammation, fibrosis and FXR target genes in liver; assay: Liver mRNA levels by qPCR in BDL mice; type: in vivo
[3] = 3 mg/kg p.o. once daily day 7 to 14 after BDL

CC[C@H]1[C@@H](O)[C@@H]2[C@H](CC[C@]3(C)[C@@H]([C@H](C)CCC(=O)O)CC[C@@H]23)[C@@]2(C)CC[C@@H](O)C[C@@H]12 [OCA, Obeticholic acid]
binding affinity between FXR and NCoR2 (FXR): decreased the binding affinity | collagen deposition (Sirius red) compared to the vehicle group [1, 3]: smaller amount | inflammatory infiltrates (H&E) compared to the vehicle group [1, 3]: lower level | BDL-induced increase in total bilirubin level in the serum ([1]; once daily day 7 to 14 after BDL): reversed | liver mRNA expression of inflammatory biomarkers IL-6, IL-1β, iNOS, COX2 [2]: significantly decreased
